Experimental data reported in US7361659B2, “Pyrrazolo-pyrimidine derivatives” (Hoffmann-La Roche Inc., priority 2005, dated 2008).

Going from `Cc1nc(NC(=O)c2cnn3c(C(F)(F)F)cc(-c4ccc(Cl)c(Cl)c4)nc23)sc1S(=O)(=O)NC(C)(C)CO` [Example 31, 5-(3,4-Dichloro-phenyl)-7-trifluoromethyl-pyrazolo[1,5-a]pyrimidine-3-carboxylic acid [5-(2-hydroxy-1,1-dimethyl-ethylsulfamoyl)-4-methyl-thiazol-2-yl]-amide] to `CCOc1cc(-c2cc(C(F)(F)F)n3ncc(C(=O)Nc4nc(C)c(S(=O)(=O)NC(C)(C)CO)s4)c3n2)ccc1C(F)(F)F` [Example 23, 5-(3-Ethoxy-4-trifluoromethyl-phenyl)-7-trifluoromethyl-pyrazolo[1,5-a]pyrimidine-3-carboxylic acid [5-(2-hydroxy-1,1-dimethyl-ethylsulfamoyl)-4-methyl-thiazol-2-yl]-amide], the melting point rises from 265 °C to 276 °C.

First: CC(C)(CO)NS(=O)(=O)c1cnc(NC(=O)c2cnn3c(C(F)(F)F)cc(-c4ccc(C(F)(F)F)cc4)nc23)s1 [Example 59, 7-Trifluoromethyl-5-(4-trifluoromethyl-phenyl)-pyrazolo[1,5-a]pyrimidine-3-carboxylic acid [5-(2-hydroxy-1,1-dimethyl-ethylsulfamoyl)-thiazol-2-yl]-amide]
Second: CC(C)(CO)NS(=O)(=O)c1cnc(NC(=O)c2cnn3c(C(F)F)cc(-c4ccc(C(F)(F)F)cc4)nc23)s1 [Example 60, 7-Difluoromethyl-5-(4-trifluoromethyl-phenyl)-pyrazolo[1,5-a]pyrimidine-3-carboxylic acid [5-(2-hydroxy-1,1-dimethyl-ethylsulfamoyl)-thiazol-2-yl]-amide]
The melting point of the first is higher: 292 °C for the first, 280 °C for the second.

Compared with `Cc1nc(NC(=O)c2cnn3c(C(F)F)cc(-c4ccc(C(F)(F)F)cc4)nc23)sc1S(=O)(=O)NC(C)(CO)CO` [Example 43, 7-Difluoromethyl-5-(4-trifluoromethyl-phenyl)-pyrazolo[1,5-a]pyrimidine-3-carboxylic acid [5-(2-hydroxy-1-hydroxymethyl-1-methyl-ethylsulfamoyl)-4-methyl-thiazol-2-yl]-amide], `Cc1nc(NC(=O)c2cnn3c(C(F)F)cc(-c4ccc(C(F)(F)F)cc4)nc23)sc1S(N)(=O)=O` [Example 7, 7-Difluoromethyl-5-(4-trifluoromethyl-phenyl)-pyrazolo[1,5-a]pyrimidine-3-carboxylic acid (4-methyl-5-sulfamoyl-thiazol-2-yl)-amide] is higher in melting point: 248 °C for the first, 284 °C for the second.

First: Cc1sc(S(=O)(=O)NC(C)(C)CO)cc1NC(=O)c1cnn2c(C(F)(F)F)cc(-c3ccc(C(F)(F)F)cc3)nc12 [Example 49, 7-Trifluoromethyl-5-(4-trifluoromethyl-phenyl)-pyrazolo[1,5-a]pyrimidine-3-carboxylic acid [5-(2-hydroxy-1,1-dimethyl-ethylsulfamoyl)-2-methyl-thiophen-3-yl]-amide]
Second: Cc1sc(S(=O)(=O)NC(C)(C)CO)cc1NC(=O)c1cnn2c(C(F)F)cc(-c3ccc(C(F)(F)F)cc3)nc12 [Example 50, 7-Difluoromethyl-5-(4-trifluoromethyl-phenyl)-pyrazolo[1,5-a]pyrimidine-3-carboxylic acid [5-(2-hydroxy-1,1-dimethyl-ethylsulfamoyl)-2-methyl-thiophen-3-yl]-amide]
The melting point of the first is higher: 225 °C for the first, 180 °C for the second.

Compared with `CC(C)(CO)NS(=O)(=O)c1cc(NC(=O)c2cnn3c(C4CC4)cc(-c4ccc(Cl)cc4)nc23)c(Cl)s1` [Example 61, 5-(4-Chloro-phenyl)-7-cyclopropyl-pyrazolo[1,5-a]pyrimidine-3-carboxylic acid [2-chloro-5-(2-hydroxy-1,1-dimethyl-ethylsulfamoyl)-thiophen-3-yl]-amide], `Cc1cc(-c2cc(C(F)(F)F)n3ncc(C(=O)Nc4cc(S(=O)(=O)NC(C)(C)CO)sc4Cl)c3n2)ccc1C(F)(F)F` [Example 16, 5-(3-Methyl-4-trifluoromethyl-phenyl)-7-trifluoromethyl-pyrazolo[1,5-a]pyrimidine-3-carboxylic acid [2-chloro-5-(2-hydroxy-1,1-dimethyl-ethylsulfamoyl)-thiophen-3-yl]-amide] is lower in melting point: 238 to 241 °C for the first, 207 °C for the second.

Compared with `O=C(Nc1cc(S(=O)(=O)NCCO)sc1Cl)c1cnn2c(C(F)F)cc(-c3ccc(C(F)(F)F)cc3)nc12` [Example 44, 7-Difluoromethyl-5-(4-trifluoromethyl-phenyl)-pyrazolo[1,5-a]pyrimidine-3-carboxylic acid [2-chloro-5-(2-hydroxy-ethylsulfamoyl)-thiophen-3-yl]-amide], `NCCNS(=O)(=O)c1cc(NC(=O)c2cnn3c(C(F)F)cc(-c4ccc(C(F)(F)F)cc4)nc23)c(Cl)s1` [Example 65, 7-Difluoromethyl-5-(4-trifluoromethyl-phenyl)-pyrazolo[1,5-a]pyrimidine-3-carboxylic acid [5-(2-amino-ethylsulfamoyl)-2-chloro-thiophen-3-yl]-amide] is lower in melting point: 209 °C for the first, 150 °C for the second.

Going from `NS(=O)(=O)c1nnc(NC(=O)c2cnn3c(C(F)(F)F)cc(-c4ccc(C(F)(F)F)cc4)nc23)s1` [Example 4, 7-Trifluoromethyl-5-(4-trifluoromethyl-phenyl)-pyrazolo[1,5-a]pyrimidine-3-carboxylic acid (5-sulfamoyl-[1,3,4]thiadiazol-2-yl)-amide] to `Cc1sc(S(N)(=O)=O)cc1NC(=O)c1cnn2c(C(F)(F)F)cc(-c3ccc(C(F)(F)F)cc3)nc12` [Example 47, 7-Trifluoromethyl-5-(4-trifluoromethyl-phenyl)-pyrazolo[1,5-a]pyrimidine-3-carboxylic acid (2-methyl-5-sulfamoyl-thiophen-3-yl)-amide], the melting point rises from 280 °C to 297 °C.

First: Cc1nc(NC(=O)c2cnn3c(C(F)F)cc(-c4ccc(C(F)(F)F)cc4)nc23)sc1S(=O)(=O)N1CCN(C)CC1 [Example 68, 7-Difluoromethyl-5-(4-trifluoromethyl-phenyl)-pyrazolo[1,5-a]pyrimidine-3-carboxylic acid [4-methyl-5-(4-methyl-piperazine-1-sulfonyl)-thiazol-2-yl]-amide]
Second: CN1CCN(S(=O)(=O)c2cc(NC(=O)c3cnn4c(C(F)F)cc(-c5ccc(C(F)(F)F)cc5)nc34)c(Cl)s2)CC1 [Example 73, 7-Difluoromethyl-5-(4-trifluoromethyl-phenyl)-pyrazolo[1,5-a]pyrimidine-3-carboxylic acid [2-chloro-5-(4-methyl-piperazine-1-sulfonyl)-thiophen-3-yl]-amide]
The melting point of the first is lower: 269 °C for the first, 293 °C for the second.

Compared with `Cc1sc(S(N)(=O)=O)cc1NC(=O)c1cnn2c(C(F)F)cc(-c3ccc(C(F)(F)F)cc3)nc12` [Example 48, 7-Difluoromethyl-5-(4-trifluoromethyl-phenyl)-pyrazolo[1,5-a]pyrimidine-3-carboxylic acid (2-methyl-5-sulfamoyl-thiophen-3-yl)-amide], `CN(C)CCNS(=O)(=O)c1cc(NC(=O)c2cnn3c(C(F)F)cc(-c4ccc(C(F)(F)F)cc4)nc23)c(Cl)s1` [Example 54, 7-Difluoromethyl-5-(4-trifluoromethyl-phenyl)-pyrazolo[1,5-a]pyrimidine-3-carboxylic acid [2-chloro-5-(2-dimethylamino-ethylsulfamoyl)-thiophen-3-yl]-amide] is lower in melting point: 313 °C for the first, 162 °C for the second.

Going from `O=C(Nc1cc(S(=O)(=O)N2CCC(O)C2)sc1Cl)c1cnn2c(C(F)F)cc(-c3ccc(C(F)(F)F)cc3)nc12` (racemic) [Example 66, 7-Difluoromethyl-5-(4-trifluoromethyl-phenyl)-pyrazolo[1,5-a]pyrimidine-3-carboxylic acid [(RS)-2-chloro-5-(3-hydroxy-pyrrolidine-1-sulfonyl)-thiophen-3-yl]-amide] to `Cc1nc(NC(=O)c2cnn3c(C(F)(F)F)cc(-c4ccc(C(F)(F)F)cc4)nc23)sc1S(=O)(=O)N1CCC(O)C1` (racemic) [Example 76, 7-Trifluoromethyl-5-(4-trifluoromethyl-phenyl)-pyrazolo[1,5-a]pyrimidine-3-carboxylic acid [(RS)-5-(3-hydroxy-pyrrolidine-1-sulfonyl)-4-methyl-thiazol-2-yl]-amide], the melting point rises from 274 °C to 300 °C.

Compared with `CCOc1cc(-c2cc(C(F)(F)F)n3ncc(C(=O)Nc4cc(S(=O)(=O)NC(C)(C)CO)sc4Cl)c3n2)ccc1C(F)(F)F` [Example 15, 5-(3-Ethoxy-4-trifluoromethyl-phenyl)-7-trifluoromethyl-pyrazolo[1,5-a]pyrimidine-3-carboxylic acid [2-chloro-5-(2-hydroxy-1,1-dimethyl-ethylsulfamoyl)-thiophen-3-yl]-amide], `CCOc1cc(-c2cc(C(F)(F)F)n3ncc(C(=O)Nc4nc(C)c(S(N)(=O)=O)s4)c3n2)ccc1C(F)(F)F` [Example 20, 5-(3-Ethoxy-4-trifluoromethyl-phenyl)-7-trifluoromethyl-pyrazolo[1,5-a]pyrimidine-3-carboxylic acid (4-methyl-5-sulfamoyl-thiazol-2-yl)-amide] is higher in melting point: 234 °C for the first, 300 °C for the second.

Going from `Cc1nc(NC(=O)c2cnn3c(C(F)(F)F)cc(-c4ccc(C(F)(F)F)cc4)nc23)sc1S(=O)(=O)N(CCO)CCO` [Example 41, 7-Trifluoromethyl-5-(4-trifluoromethyl-phenyl)-pyrazolo[1,5-a]pyrimidine-3-carboxylic acid {5-[bis-(2-hydroxy-ethyl)-sulfamoyl]-4-methyl-thiazol-2-yl}-amide] to `O=C(Nc1cc(S(=O)(=O)NC(CO)CO)sc1Cl)c1cnn2c(C(F)(F)F)cc(-c3ccc(C(F)(F)F)cc3)nc12` [Example 29, 7-Trifluoromethyl-5-(4-trifluoromethyl-phenyl)-pyrazolo[1,5-a]pyrimidine-3-carboxylic acid [2-chloro-5-(2-hydroxy-1-hydroxymethyl-ethylsulfamoyl)-thiophen-3-yl]-amide], the melting point rises from 214 °C to 225 °C.

`Cc1nc(NC(=O)c2cnn3c(C(F)(F)F)cc(-c4ccc(C(F)(F)F)c(OCC(F)(F)F)c4)nc23)sc1S(N)(=O)=O` [Example 27, 5-[3-(2,2,2-Trifluoro-ethoxy)-4-trifluoromethyl-phenyl]-7-trifluoromethyl-pyrazolo[1,5-a]pyrimidine-3-carboxylic acid (4-methyl-5-sulfamoyl-thiazol-2-yl)-amide] gave a melting point of 264 °C.
